The source of these data is patent publication US20040097420A1, “Proteasome regulation of NF-kB activity” (Harvard College, priority 1994, published 2004).

Each structure is given as a SMILES string. Non-standard residues stand in square brackets, D forms with d. Residues, ends and D or L forms follow the SMILES beside them. ξ: configuration not given here. *: point of attachment. Phe(4-NO2) = N[C@@H](Cc1ccc([N+](=O)[O-])cc1)C(=O)O; Tyr(3,5-Br2) = N[C@@H](Cc1cc(Br)c(O)c(Br)c1)C(=O)O; Phe(4-Cl) = N[C@@H](Cc1ccc(Cl)cc1)C(=O)O; 1Nal = N[C@@H](Cc1cccc2ccccc12)C(=O)O; 2Nal = N[C@@H](Cc1ccc2ccccc2c1)C(=O)O; Cha = N[C@@H](CC1CCCCC1)C(=O)O; Ile(3ξ) = CCC(C)[C@H](N)C(=O)O; AllylGly = C=CC[C@H](N)C(=O)O; Phg = N[C@H](C(=O)O)c1ccccc1; Nva = CCC[C@H](N)C(=O)O; Cbz = O=C(OCc1ccccc1)*; Boc = CC(C)(C)OC(=O)*; Bn = c1ccc(C*)cc1

For the assay, the target named is T1, 20S proteasome (Oryctolagus cuniculus, UniProt G1T4Q9).
T1 sequence (G1T4Q9 60-263): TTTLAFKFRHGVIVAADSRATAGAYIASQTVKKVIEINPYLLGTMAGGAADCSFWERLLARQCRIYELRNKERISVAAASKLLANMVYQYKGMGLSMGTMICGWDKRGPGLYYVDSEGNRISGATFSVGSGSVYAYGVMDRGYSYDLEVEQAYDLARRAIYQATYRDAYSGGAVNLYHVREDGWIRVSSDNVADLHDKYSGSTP
Kind of assay: Inhibition of the 20S proteasome (kinetic experiments, Ki). It is filed as biochemical, Rabbit. Conditions: Table V, miscellaneous tripeptide aldehydes; 20S proteasome. An excerpt:
Tables I-III summarize results from kinetic experiments that measured the inhibition of the 20S and 26S proteasomes, as well as cathepsin B and calpain. In these tables, Ki values are reported, which are dissociation constants for the equilibrium that is established when enzyme and inhibitor interact to form the enzyme:inhibitor complex.
The substances and assay conditions are briefly summarized in the footnotes to Table I. MG 101 and MG 102, also known as Calpain Inhibitor I and II, were purchased from Calbiochem as catalogue products.
Table V summarizes data for the inhibition of the 20S proteasome by various tripeptide aldehyde inhibitors.
Usually Ki stands for the equilibrium dissociation constant of an inhibitor or competing ligand from its target. The low end stands for higher affinity, the high end for lower affinity. For the compound `CCC[C@@H](C=O)NC(=O)[C@H](CC(C)C)NC(=O)[C@H](Cc1cccc2ccccc12)NC(=O)OCc1ccccc1` [MG 142] (Cbz-[1Nal]-Leu-[Nva]-aldehyde), the inhibition constant (Ki) came to 0.3 nM.
In the case of `CC(C)C[C@H](NC(=O)OCc1ccccc1)C(=O)N[C@@H](CC(C)C)C(=O)N[C@H](C=O)Cc1ccc(O)cc1` [MG 131] (Cbz-Leu-Leu-Tyr-aldehyde) it was 6 nM; in that of `CC(C)C[C@H](NC(=O)OCc1ccccc1)C(=O)N[C@@H](CC(C)C)C(=O)N[C@H](C=O)Cc1ccc(Cl)cc1` [MG 158] (Cbz-Leu-Leu-[Phe(4-Cl)]-aldehyde), 7 nM; in that of `CCC(C)[C@@H](C=O)NC(=O)[C@H](CC(C)C)NC(=O)[C@H](CC(C)C)NC(=O)OCc1ccccc1` (stereo partly drawn) [MG 134] (Cbz-Leu-Leu-[Ile(3ξ)]-aldehyde), 100 nM.
In the case of `CCC[C@@H](C=O)NC(=O)[C@H](CC(C)C)NC(=O)[C@H](CC1CCCCC1)NC(=O)OCc1ccccc1` [MG 141] (Cbz-[Cha]-Leu-[Nva]-aldehyde) it was 50 nM; in that of `CC(C)C[C@@H](C=O)NC(=O)[C@H](CC(C)C)NC(=O)[C@H](Cc1cccc2ccccc12)NC(=O)OCc1ccccc1` [MG 150] (Cbz-[1Nal]-Leu-Leu-aldehyde), 0.4 nM; in that of `CC(C)C[C@H](NC(=O)OCc1ccccc1)C(=O)N[C@@H](CC(C)C)C(=O)N[C@H](C=O)Cc1cc(Br)c(O)c(Br)c1` [MG 160] (Cbz-Leu-Leu-[Tyr(3,5-Br2)]-aldehyde), 51 nM.
In the case of `CC(C)C[C@H](NC(=O)OCc1ccccc1)C(=O)N[C@@H](CC(C)C)C(=O)N[C@H](C=O)c1ccccc1` [MG 133] (Cbz-Leu-Leu-[Phg]-aldehyde) it was 470 nM.
As for `CC(C)C[C@H](NC(=O)OCc1ccccc1)C(=O)N[C@@H](CC(C)C)C(=O)N[C@H](C=O)CC1CCCCC1` [MG 129] (Cbz-Leu-Leu-[Cha]-aldehyde), the Ki came to 60 nM.
On to `CC(C)C[C@H](NC(=O)OCc1ccccc1)C(=O)N[C@@H](CC(C)C)C(=O)N[C@H](C=O)Cc1ccc([N+](=O)[O-])cc1` [MG 135] (Cbz-Leu-Leu-[Phe(4-NO2)]-aldehyde), for which the Ki was determined as 290 nM. This Ki is about 4.8-fold higher than that of the compound before.
Consider `CC(C)C[C@@H](C=O)NC(=O)[C@H](CC(C)C)NC(=O)[C@H](CC(C)C)NC(=O)OC(C)(C)C` [MG 155] (Boc-Leu-Leu-Leu-aldehyde), for which the affinity, expressed as Ki, was 54 nM.
Turning to `CC(C)C[C@@H](C=O)NC(=O)[C@H](Cc1cccc2ccccc12)NC(=O)[C@H](Cc1ccc2ccccc2c1)NC(=O)OCc1ccccc1` [MG 167] (Cbz-[2Nal]-[1Nal]-Leu-aldehyde), the Ki was 0.015 nM. This Ki is about 3600-fold lower than that of the compound before.
In the case of `CC(C)C[C@@H](C=O)NC(=O)[C@H](Cc1cccc2ccccc12)NC(=O)[C@H](Cc1cccc2ccccc12)NC(=O)OCc1ccccc1` [MG 166] (Cbz-[1Nal]-[1Nal]-Leu-aldehyde) it was 0.035 nM; in that of `CC(C)C[C@@H](C=O)NC(=O)[C@H](CC(C)C)NC(=O)[C@H](Cc1ccc2ccccc2c1)NC(=O)OCc1ccccc1` [MG 165] (Cbz-[2Nal]-Leu-Leu-aldehyde), 0.24 nM; in that of `CC(=O)N[C@@H](CC(C)C)C(=O)N[C@@H](CC(C)C)C(=O)N[C@H](C=O)CC(C)C` [MG 154] (Ac-Leu-Leu-Leu-aldehyde), 75 nM.
In the case of `C=CC[C@@H](C=O)NC(=O)[C@H](CC(C)C)NC(=O)[C@H](CC(C)C)NC(=O)OCc1ccccc1` [MG 139] (Cbz-Leu-Leu-[AllylGly]-aldehyde) it was 20 nM.
In the case of `CC(C)C[C@@H](C=O)NC(=O)[C@H](CC(C)C)NC(=O)[C@H](CC(C)C)NC(=O)OCc1ccccc1` [MG 132] (Cbz-Leu-Leu-Leu-aldehyde) it was 9 nM; in that of `COc1ccc(C[C@@H](C=O)NC(=O)[C@H](CC(C)C)NC(=O)[C@H](CC(C)C)NC(=O)OCc2ccccc2)cc1` [MG 152] (Cbz-Leu-Leu-Tyr(Me)-aldehyde), 6 nM.
Turning to `CC(C)C[C@H](NC(=O)OCc1ccccc1)C(=O)N[C@@H](CC(C)C)C(=O)N[C@H](C=O)Cc1ccc(OCc2ccccc2)cc1` [MG 153] (Cbz-Leu-Leu-Tyr(Bn)-aldehyde), affinity was put at a Ki of 280 nM.
